Results on 7 compounds are retold here after US5037841A, “1,3-disubstituted pyrrolidines” (Bayer Aktiengesellschaft, priority 1988, dated 1991).

The structures appear in SMILES notation. Structures can show the parent of a compound that is named as a salt.

For one assay, the target named is T1, 5-HT1 receptor (Bos taurus, UniProt F6Q2H9).
T1 construct: calf hippocampus membrane preparations; from tissue; host or cells: calf hippocampus membranes
T1 sequence (F6Q2H9 1-422): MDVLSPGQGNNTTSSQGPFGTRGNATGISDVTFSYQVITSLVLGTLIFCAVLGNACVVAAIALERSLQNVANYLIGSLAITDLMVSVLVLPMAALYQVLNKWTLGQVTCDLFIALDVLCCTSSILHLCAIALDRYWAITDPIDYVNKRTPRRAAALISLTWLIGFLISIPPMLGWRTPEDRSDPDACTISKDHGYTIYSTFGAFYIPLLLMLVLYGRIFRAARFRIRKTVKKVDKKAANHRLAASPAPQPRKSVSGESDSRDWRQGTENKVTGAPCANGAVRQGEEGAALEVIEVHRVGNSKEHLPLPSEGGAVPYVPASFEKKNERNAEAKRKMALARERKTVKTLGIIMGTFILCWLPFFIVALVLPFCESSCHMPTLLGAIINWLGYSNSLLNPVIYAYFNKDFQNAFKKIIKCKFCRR
In words: Affinity for the 5-HT1 receptor: receptor binding studies using calf hippocampus membrane preparations, 3H-serotonin as radioligand. To be noted: Comparison compound of DE-A 1,964,511; test conditions not restated; read-out: Ki value (comparison compound). The source says:
Affinity for the 5-HT1 receptor
The high affinity of the compound according to the invention for 5-hydroxytryptamine receptors of the subtype […] is represented by way of example in Table 4. The values indicated are data which have been determined from receptor binding studies using calf hippocampus membrane preparations. For this purpose, ^3 H-serotonin was used as a radioactively labelled ligand.
In the case of `COc1ccccc1OC1CCN(C(C)C)C1` (stereo not shown) [Comparison, reference compound], the inhibitory constant (Ki) is 1000 nM.

Still in this assay, the particulars now being: calf hippocampus membranes; 3H-serotonin radioligand; read-out: Ki.
For `O=C1c2ccccc2S(=O)(=O)N1CCCCN1CCC(Oc2cccc3ccccc23)C1` (stereo not shown) [Example 23, 3-(1-naphthyloxy)-1-[4-(1,1-dioxido-3-oxo-2,3-dihydrobenzisothiazol-2-yl)butyl]-pyrrolidine], the inhibition constant Ki is 0.3 nM.
Same read-out and setting: for `N#Cc1ccccc1OC1CCN(CCCCN2C(=O)c3ccccc3S2(=O)=O)C1` (stereo not shown) [Example 1, 3-(2-Cyanophenoxy)-1-[4-(1,1-dioxido-3-oxo-2,3-dihydrobenzisothiazol-2-yl)butyl]-pyrrolidine oxalate] the value was 2 nM.
Same read-out and setting: for `NC(=O)c1ccccc1OC1CCN(CCCCN2C(=O)c3ccccc3S2(=O)=O)C1` (stereo not shown) [Example 19, 3-(2-carbamoylphenoxy)-1-[4-(1,1-dioxido-3-oxo-2,3-dihydrobenzisothiazol-2-yl)butyl]-pyrrolidine] the value was 7 nM; for `COc1cccc(OC2CCN(CCCCN3C(=O)c4ccccc4S3(=O)=O)C2)c1` (stereo not shown) [Example 10, 3-(3-methoxyphenoxy)-1-[4-(1,1-dioxido-3-oxo-2,3-dihydrobenzisothiazol-2-yl)butyl]-pyrrolidine], 6 nM.
Same read-out and setting: for `COc1ccccc1OC1CCN(CCCCN2C(=O)c3ccccc3S2(=O)=O)C1` (stereo not shown) [Example 8, 3-(2-methoxyphenoxy)-1-[4-(1,1-dioxido-3-oxo-2,3-dihydrobenzisothiazol-2-yl)butyl]-pyrrolidine] the value was 1.3 nM; for `O=C1c2ccccc2S(=O)(=O)N1CCCCN1CCC(Oc2ccccc2)C1` (stereo not shown) [Example 6], 9 nM.
